Measurements taken from patent US9220714B2, “Nitrofuran compounds for the treatment of cancer and angiogenesis” (WOMEN AND INFANTS HOSPITAL OF RHODE ISLAND, priority 2006, dated 2015).
Values after ≈ are worked out from the molar mass of the structure shown. Like-named read-outs stand apart in the source and are kept apart here.

Experiments:
[1] = tested on: neuroblastoma; conditions: for tumor marker VMA: initial VMA 22
Description: Chagas disease is a parasitic disease caused by Trypanasoma cruzi endemic to South America.

[2] = tested on: normal epithelial cells; conditions: normal epithelial cells in culture; cited from earlier work
[3] = tested on: SMS-KCNR cells; experiment: cells; conditions: Homo sapiens
Procedure: (§1) Cell viability was assessed using the MTS assay as described in Materials and Methods and expressed as percent of vehicle treated control. The data represents the mean SSD of four replicates.
SMS-KCNR cells were pretreated with pancaspase inhibitor, Z-VAD-FMK. […] Cell viability was measured by MTS assay. The reversal of cytotoxicity by pancaspase inhibitor was determined by comparing the viability of riifurtimox treated cells in the presence or absence of the pancaspase inhibitor. The values are the Mean±SD of quadruplicates.
(§2) The human neuroblastoma cell lines IMR-32 (ATCC), SMS-KCN, SMS-KCNR (from John Maris, CHOP, Philadelphia, Pa.) were maintained in RPMI 1640 media supplemented with 10% fetal bovine serum, 100 units/ml penicillin and 100 μg/ml streptomycin at 37° C. in a humidified incubator. Cells were grown in 6 well plates or 100 mm dishes to 75% confluency and serum deprived (RPMI 1640 with 0.1% BSA) overnight before treatment.
(§3) Cell viability was measured using the CellTiter 96 AQ One Solution Cell Proliferation Assay kit (Promega, Madison Wis.)^4. […] Vehicle treated cells were used as control (0.001% DMSO). At the end of the incubation period, MTS reagent (3-(4,5-dimethylthiazol-2-yl)-5-(3-carboxymethoxyphenyl)-2-(4-sulfophenyl)-2H-tetrazolium)^12 was added to each well in fresh media to a final concentration of 0.5 mg/ml and incubated for 4 hours. Absorbance was measured at 490 nm using a microplate reader (Multiskan RC, Fisher Scientific Pittsburgh, Pa.). Cell viability is represented as the mean percentage+/−SD of absorbance before and after treatment.
Inactivation of caspases results in inhibition of caspase mediated apoptosis. […] The cell viability was measured by MTS assay.

[4] = tested on: neuroblastoma cell lines
[5] = tested on: SMS-KCNR cells; conditions: 96 hours
Procedure: Vehicle treated cells were used as control.
Vehicle treated cells were used as control. […] The cells were washed with PBS, fixed with paraformaldehyde, permeabilized with Triton X-100 at room temperature, labeled with fluorescein-12-dUTP using terminal deoxynucleotidyl transferase and counterstained with propidium iodide (5 μg/ml). Negative controls (without terminal transferase) were included in each experiment. Apoptosis was detected by fluorescence microscopy (Nikon Eclipse TE2000-E fitted with a cooled CCD camera, Japan). Propidium iodide staining was used to detect both non-apoptotic and apoptotic cells and fluorescein staining was used to detect the apoptotic cells.

[6] = tested on: HEC; experiment: cells; conditions: Homo sapiens, 8 h, read-out: inhibition of tube formation
Procedure: Stimulation with growth factors leads to morphological differentiation of endothelial cells and formation of tube like structures on matrices. The endothelial tube formation assay was performed in Matrigel bed. Briefly, Matrigel bed was prepared by using pre-cooled pipettes, plates and tubes on ice. Growth factor-reduced Matrigel was thawed overnight at 4° C. and mixed to homogeneity, Culture plates (48-well) were coated with 0.1 ml of Matrigel and allowed to gelatinize at 37° C. for 30 minutes. […] Capillary networks were photographed using a phase-contrast microscope (Nikon Eclipse TS 100, fitted with Fuji digital camera, Japan), and the number of tubes was quantified by counting the branching points from four quadrants of each well.

[7] = tested on: SMS-KCNR cells; conditions: 150 mg/kg/day in food pellets, 30 days, nude mice
[8] = tested on: ERK1/2; conditions: SMS-KCNR, data not shown
[9] = tested on: sympathetic neurons; conditions: not seen in parasympathetic neurons or non-neuronal cells
[10] = tested on: SMS-KCNR cells; experiment: cells; conditions: Homo sapiens, read-out: concentration giving 50% inhibition in DNA synthesis (BrdU incorporation)
Procedure: (§4) Cells were labeled with 10 μM BrdU for 6 hours. The cells were fixed and the color was developed using peroxidase conjugated anti-BrdU antibody and TMB (3,3′,5,5′-tetramethylbenzidine) chromogenic substrate. Absorbance was measured at 450 nm using a microplate reader (Multiskan RC, Fisher Scientific, Pittsburgh, Pa.). In this assay, the color intensity correlates directly to the amount of BrdU incorporation which in turn reflects proliferation.

[11] = study of 67 children using nifurtimox for Chagas disease; cited from earlier work
[12] = tested on: IMR-32 cells; experiment: cells; conditions: Homo sapiens
Procedure: as §1, §2, §3

[13] = tested on: SMS-KCN cells; experiment: cells; conditions: Homo sapiens
Procedure: as §1, §2, §3

[14] = tested on: rat aortic rings; conditions: with growth factors, day 9
Description: (A) Vehicle treated aorta without growth factor (B) Vehicle treated aorta with growth factor.
Matrigel bed mimics physiological extracellular matrix representing its natural composition and architecture. Due to these features, Matrigel enables several cell types, including endo-thelial cells, to maintain in culture their in vivo phenotype and 3-dimensional organization. Aortic arches were removed from euthanized rats and immediately transferred to a culture dish containing ice-cold serum-free media. The peri-aortic fibroadipose tissue was carefully removed with fine microdissection forceps and iridectomy scissors paying special attention not to damage the aortic wall. Aortic rings (1 mm thick) were sectioned and extensively rinsed in 5 consecutive washes of Medium 200. […] The explants were examined every second day with a Nikon Eclipse TS100 inverted microscope at an appropriate magnification and photographed at the end of 9th day. On the ninth day, the capillary sprouting were quantified by grading and recording the extent of sprouting directly reflecting angiogenesis using Nikon Eclipse TS100 fluorescent microscope (Japan) and Fuji digital camera.

[15] = tested on: Human Endothelial Cells (HEC); experiment: cells; conditions: Endothelial cell, read-out: inhibition of DNA synthesis in HEC
Procedure: as §4
Human Endothelial Cells (HEC) (1×10^4 cells) were cultured in 96 well plates, serum deprived for 16 hours and treated with […], 1.25, 2.5, 5, 10 and 20 μg/ml in Medium 200 in the presence or absence of 50 ng/ml VEGF for 72 hours. BrdU (10 μM final concentration) was added to the cells and re-incubated for further 6 hours. The cells were fixed and the color was developed using anti-BrdU-POD antibody and TMB chromogenic substrate. The assay was performed according to the manufacturer's instructions. In this colorimetric cell proliferation assay, the color intensity correlates directly to the amount of BrdU incorporated into the DNA which in turn represents proliferation. The results are expressed as percentage BrdU incorporation.

[16] = tested on: caspase-3; conditions: 1, 10 and 20 μg/ml, 24 hours
Procedure: as §2

[17] = tested on: Akt; conditions: SMS-KCNR
Procedure: as §2

[18] = tested on: SMS-KCNR cells; conditions: 0-20 μg/ml, after 72 hours of treatment
[19] = 120 h, read-out: cell viability
[20] = read-out: IC50, concentration required to reach 50% inhibition of growth

With CC1CS(=O)(=O)CCN1/N=C/c1ccc([N+](=O)[O-])o1 (stereo not drawn) [Nifurtimox] the tumor response ([1]; Patient A, after four months, with cyclophosphamide and topotecan) was “significant and continuous tumor regression”, the tumor response ([1]; Patient A, after two weeks, Nifurtimox alone) was “tumor stabilization” and the tumor markers ([1]; Patient B, after two months, with ascorbic acid, cyclophosphamide and topotecan) was “normalization of tumor markers”. The “tumor marker VMA” value ([1]; Patient C, Day 21, before ascorbic acid) was 17, the “bone marrow tumor status” value ([1]; Patient C, Day 21, initially positive for tumor) was “negative” and the “tumor marker VMA” value ([1]; Patient C, after 3 cycles of treatment) was 13. The tumor response ([1]; patient with Chagas disease, 15-20 mg/kg/day oral, with cyclophosphamide and topotecan) was “tumor subsequently regressed”, the “tumor response after relapse” value ([1]; same patient restarted on nifurtimox, cyclophosphamide and topotecan) was “again demonstrated tumor regression” and the tumor response ([1]; three patients with relapsed neuroblastoma, 20 mg/kg/day, alone or in combination) was “tumor regression”. For the same compound, the “cytotoxic effects on normal epithelial cells” value [2] was “not observed”, the cytotoxicity at 10 µg/mL ([3]; 96 h, read-out: decrease of cell viability compared to vehicle treated control) was 50% and the viability at 20 µg/mL [3, 19] was 37%. The IC50 [3, 20] was 14.7 µg/mL (≈ 51.2 µM), the viability at 10 µg/mL ([3]; read-out: cell viability with Z-VAD-FMK pretreatment) was 90% and the “cytotoxicity after pretreatment with AMPT (tyrosine hydroxylase inhibitor)” value [4] was “reduction of cytotoxicity”. The morphological alterations ([5]; 1 μg/ml) was “decrease in axon length was apparent”, the morphological alterations ([5]; 10 μg/ml) was “the decrease in axon length was more prominent and was associated with rounding of cells” and the morphological alterations ([5]; 20 μg/ml) was “rounded up and floating”. The inhibition at 20 µg/mL [6] was 50%, the “decrease in tumor size versus untreated” value [7] was “greater than three fold decrease” and the tumor size [7] was 0.3 grams. For the same compound, the “phosphorylation of ERK1/2” value [8] was “not affected”, the “sensitivity of sympathetic neurons to nifurtimox” value [9] was “enhanced sensitivity” and the IC50 [10] was 18.1 µg/mL (≈ 63 µM). For the same compound, the “tolerability in children versus adults” value [11] was “much better tolerated in children”, the viability at 20 µg/mL ([12]; IMR-32, 120 h, read-out: cell viability) was 78% and the IC50 ([12]; IMR-32, read-out: IC50, concentration required to reach 50% inhibition of growth) was 52.9 µg/mL (≈ 184 µM). The viability at 20 µg/mL [13, 19] was 59%, the IC50 [13, 20] was 25.4 µg/mL (≈ 88.4 µM) and the “micro-vascular sprouting of aortic rings” value ([14]; 20 μg/ml) was “complete inhibition of micro-vascular sprouting”. The “capillary network of aortic rings” value ([14]; 1 and 10 μg/ml) was “sparse and incomplete”, the inhibition at 5 µg/mL [15] was 30% and the inhibition at 10 µg/mL [15] was 50%. The inhibition at 20 µg/mL [15] was > 80%, the “activation of caspase-3 (19 and 17 kDa bands)” value [16] was “dose dependent and strong activation” and the “serum stimulated Akt phosphorylation” value ([17]; 1.0 and 10 μg/ml, in the presence of serum) was “completely inhibited”. The “BDNF stimulated Akt phosphorylation” value ([17]; 10 and 20 μg/ml, BDNF stimulation) was “significantly inhibited”, the “total Akt protein levels” value ([17]; BDNF stimulation) was “not altered” and the “apoptosis (TUNEL positive nuclei)” value [18] was “dose dependent increase in apoptosis”.
